The target in experiment [1] is T1, Prostaglandin G/H synthase 1 (Ovis aries) (UniProt P05979).
T1 sequence (whole entry): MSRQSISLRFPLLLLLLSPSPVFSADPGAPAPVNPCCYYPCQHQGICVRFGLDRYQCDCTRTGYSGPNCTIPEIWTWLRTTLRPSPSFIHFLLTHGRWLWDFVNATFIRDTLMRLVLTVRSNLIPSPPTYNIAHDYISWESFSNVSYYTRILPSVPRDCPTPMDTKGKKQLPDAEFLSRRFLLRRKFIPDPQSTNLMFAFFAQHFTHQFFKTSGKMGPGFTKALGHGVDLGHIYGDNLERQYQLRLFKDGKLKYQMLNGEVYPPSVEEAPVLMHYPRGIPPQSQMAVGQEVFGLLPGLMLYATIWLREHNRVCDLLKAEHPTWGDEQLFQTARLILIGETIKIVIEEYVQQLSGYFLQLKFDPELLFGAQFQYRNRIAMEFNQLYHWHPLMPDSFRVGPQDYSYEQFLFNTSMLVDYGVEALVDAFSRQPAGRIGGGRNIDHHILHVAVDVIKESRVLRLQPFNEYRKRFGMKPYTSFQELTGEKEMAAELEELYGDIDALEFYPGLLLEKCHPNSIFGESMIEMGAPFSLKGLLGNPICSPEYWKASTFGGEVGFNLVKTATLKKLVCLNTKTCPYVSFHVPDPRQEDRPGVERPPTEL
As to the kind of experiment: Inhibition of ovine COX1 assessed as reduction in PGF2alpha formation at 10 uM incubated for 18 hrs by enzyme immunoassay.

Experiment [2] addresses T2, Prostaglandin G/H synthase 1 (Ovis aries, UniProt P05979).
T2 sequence (P05979 whole entry): T1 sequence (whole entry)
Put plainly: Inhibition of ovine COX1 assessed as reduction in PGF2alpha formation incubated for 18 hrs by enzyme immunoassay.

Experiment [3] concerns Rattus norvegicus. As to the kind of experiment: Anti-inflammatory activity in Sprague-Dawley rat model of carrageenan-induced paw edema assessed as inhibition of paw edema volume at 150 umol/kg, po dosed 1 hr before carrageenan challenge and measured 1 hr post carrageenan challenge. It counts as functional. (In general: The carrageenan paw model is a standard test of acute inflammation.)

Experiment [4] has as its system Rattus norvegicus. As to the kind of experiment: Anti-inflammatory activity in Sprague-Dawley rat model of carrageenan-induced paw edema assessed as inhibition of paw edema volume at 150 umol/kg, po dosed 1 hr before carrageenan challenge and measured 3 hrs post carrageenan challenge. Type of experiment: functional.
Experiment [5] relates to Rattus norvegicus. As to the kind of experiment: Anti-inflammatory activity in Sprague-Dawley rat model of carrageenan-induced paw edema assessed as inhibition of paw edema volume at 150 umol/kg, po dosed 1 hr before carrageenan challenge and measured 5 hrs post carrageenan challenge. Type of experiment: functional.

What is called inhibition is how much of the control response was suppressed. Usually IC50 stands for the point on the concentration scale where inhibition reaches its midpoint. Broadly, the inhibition in vivo is the share of the control response that was lost under treatment.

In the case of `COc1ccc2c(c1)oc(=O)c1c(C)nn(-c3ccccc3)c12`, in experiment [1], the inhibition was found to be 43.2%.
Regarding `Cc1nn(-c2ccc(Br)cc2)c2c1c(=O)oc1ccccc12`, the inhibition in experiment [1] is 47.5%. Besides, the IC50 in experiment [2] is more than 30 µM. For the same compound, the results for the inhibition in vivo at 150 µmol/kg in the experiment with Rattus norvegicus [3], in the experiment on Rattus norvegicus [4] and with Rattus norvegicus [5] were 14.2%, 27.8% and 37%, respectively.
On to `Cc1ccc(-c2cc(C(F)(F)F)nn2-c2ccc(S(N)(=O)=O)cc2)cc1` [CELECOXIB], for which the inhibition in vivo at 150 µmol/kg in the experiment on Rattus norvegicus [3] came out at 24.4%; in the experiment with Rattus norvegicus [4], 38.8%; in the experiment with Rattus norvegicus [5], 51.4%.
On to `Cc1nn(-c2ccc(C(F)(F)F)cc2)c2c1c(=O)oc1ccc(Cl)cc12`, for which the inhibition in experiment [1] is 33.2%. The IC50 in experiment [2] is more than 30 µM. Also, the figures for the inhibition in vivo at 150 µmol/kg with Rattus norvegicus [3], in the experiment with Rattus norvegicus [4] and in the experiment with Rattus norvegicus [5] were 23.3%, 36.1% and 57.8%, respectively.
Regarding `Cc1ccc(C)c(-n2nc(C)c3c(=O)oc4ccc(Cl)cc4c32)c1`, in experiment [1], the inhibition is 39.2%.
Still for that read-out and setting: then `COc1ccc2c(c1)oc(=O)c1c(C)nn(-c3ccccc3C(F)(F)F)c12`, with 38.2%; and `Cc1nn(-c2ccccc2)c2c1c(=O)oc1ccc(Cl)cc12`, with 43.8%.
With `Cc1nn(-c2ccc(C(F)(F)F)cc2)c2c1c(=O)oc1ccccc12`, the inhibition in experiment [1] is 34.3%. In experiment [2], the IC50 was more than 30 µM. Besides, the inhibition in vivo at 150 µmol/kg in the experiment with Rattus norvegicus [3] was determined as 27.6%; in the experiment on Rattus norvegicus [4] it was 40.4%; in the experiment on Rattus norvegicus [5] it was 59.9%.
For `Cc1nn(-c2ccc(F)cc2)c2c1c(=O)oc1ccccc12`, the inhibition in experiment [1] amounted to 28.3%. Besides, in experiment [2], the IC50 is more than 30 µM. For the same compound, the results for the inhibition in vivo at 150 µmol/kg with Rattus norvegicus [3], in the experiment with Rattus norvegicus [4] and in the experiment on Rattus norvegicus [5] were 24.6%, 39.8% and 55.6%, respectively.
On to `COc1ccc2c(c1)oc(=O)c1c(C)nn(-c3ccc(Br)cc3)c12`, for which the inhibition in experiment [1] turned out to be 27.3%.
With `Cc1nn(-c2ccc(Cl)cc2Cl)c2c1c(=O)oc1ccccc12`, the inhibition in experiment [1] worked out at 30.5%.
In the case of `Cc1ccc(C)c(-n2nc(C)c3c(=O)oc4ccccc4c32)c1`, the inhibition in experiment [1] turned out to be 21.3%.
Same read-out and setting: with `COc1ccc2c(c1)oc(=O)c1c(C)nn(-c3cc(C)ccc3C)c12` the figure was 39.5%; with `COc1ccc2c(c1)oc(=O)c1c(C)nn(-c3ccc(Cl)cc3)c12`, 34.8%.
On the same count and under the same terms, with `COc1ccc2c(c1)oc(=O)c1c(C)nn(-c3ccc(F)cc3)c12` the figure was 34.8%.
For the compound `COc1ccc2c(c1)oc(=O)c1c(C)nn(-c3ccc(C(F)(F)F)cc3)c12`, the inhibition in experiment [1] turned out to be 33.2%. Also, the IC50 in experiment [2] was more than 30 µM. Besides, the inhibition in vivo at 150 µmol/kg with Rattus norvegicus [3] was 21.7%; in the experiment with Rattus norvegicus [4] it was 32.2%; in the experiment with Rattus norvegicus [5], 43.7%.
As for `Cc1nn(-c2ccccc2)c2c1c(=O)oc1ccc(Br)cc12`, in experiment [1], the inhibition was 54.2%.
Regarding `Cc1nn(-c2ccc(Cl)cc2)c2c1c(=O)oc1ccccc12`, the inhibition in experiment [1] amounted to 43.7%. Also, in experiment [2], the IC50 is more than 30 µM. For the same compound, the inhibition in vivo at 150 µmol/kg in the experiment with Rattus norvegicus [3] is 21.3%; in the experiment with Rattus norvegicus [4], 35.2%; with Rattus norvegicus [5], 49.4%.
As for `Cc1nn(-c2ccccc2C(F)(F)F)c2c1c(=O)oc1ccccc12`, in experiment [1], the inhibition turned out to be 34.6%.
Consider `Cc1nn(-c2ccccc2)c2c1c(=O)oc1ccccc12`, for which, in experiment [1], the inhibition worked out at 48.1%. Further, the IC50 in experiment [2] is more than 30 µM. Besides, the inhibition in vivo at 150 µmol/kg in the experiment with Rattus norvegicus [3] is 19.3%; in the experiment on Rattus norvegicus [4], 30.1%; in the experiment with Rattus norvegicus [5] it was 38.2%.

(Values after ChEMBL document CHEMBL3352727, “Synthesis, biological evaluation and docking analysis of 3-methyl-1-phenylchromeno[4,3-c]pyrazol-4(1H)-ones as potential cyclooxygenase-2 (COX-2) inhibitors” (Bioorg Med Chem Lett, 2014).)
